{"source": "patent US8575161B2", "about": "“Benzofurane, benzothiophene, benzothiazol derivatives as FXR modulators” (Merck Patent GmbH, priority 2008, dated 2013)", "target": "T1, human Farsenoid X Receptor ligand binding domain - GST fusion protein (GST-FXR LBD) (Homo sapiens, UniProt Q96RI1)", "T1 construct": "Human FXR-LBD (amino acid 248-476); made in house; host or cells: E. coli BL21", "T1 sequence (Q96RI1 248-476 isoform Q96RI1-1)": "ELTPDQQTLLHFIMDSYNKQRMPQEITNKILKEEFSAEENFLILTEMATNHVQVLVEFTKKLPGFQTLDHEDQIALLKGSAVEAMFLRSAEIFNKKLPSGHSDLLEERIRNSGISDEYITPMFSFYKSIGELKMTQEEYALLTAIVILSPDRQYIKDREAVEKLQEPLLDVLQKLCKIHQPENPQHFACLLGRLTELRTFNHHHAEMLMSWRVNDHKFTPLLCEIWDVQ", "test": "FXR-SRC-1 Cofactor Recruitment Assay (time-resolved fluorescence energy transfer)", "type": "biochemical", "settings": "SRC-1 peptide recruitment, 1 hour at room temperature", "source_text": "BIOLOGICAL EXPERIMENTS FXR-SRC-1 Cofactor Recruitment Assay\nGST-LBD is labelled with a europium chelate (donor) via a europium-tagged anti-GST antibody, and the co-activator peptide is labelled with allophycocyanin-APC (acceptor) via a streptavidin-biotin linkage.\nIn the presence of an agonist for the nuclear receptor, the peptide is recruited to the GST-LBD, bringing europium and allophycocyanin into close proximity to enable energy transfer from the europium chelate to the allophycocyanin. Upon excitation of the complex with light at 340 nm, excitation energy absorbed by the europium chelate is transmitted to the allophycocyanin moiety resulting in emission at 665 nm. […] The activity of a nuclear receptor agonist can be measured by determining the ability of a compound to bind the nuclear receptor in this test (EC50) and compare to the ability of reference compound to bind this same nuclear receptor. […]\nA mix without peptide (same than peptide mix were peptide was replaced by water) was also set-up and for each compound (each concentration tested) a basal fluorescence level was determined in order to detect self-fluorescent compounds. […]\nPlates were incubated 1 hour at room temperature and fluorescence was read on a time resolved mode on a Wallac/Perkin Elmer Victor2 counter.\nFor each compound concentration, fluorescent signal ratio: F665/F615×1000 was calculated. […]", "data": [{"smiles": "O=C(O)c1cc2c(Br)c(N3CCC(N(C(=O)C4CC4)c4ccc(Cl)cc4Cl)CC3)ccc2o1", "note": "[Example 165, 4-Bromo-5-{4-[cyclopropanecarbonyl-(2,4-dichloro-phenyl)-amino]-piperidin-1-yl}-benzofuran-2-carboxylic acid]", "values": [{"measurement": "EC50", "value": 106, "unit": "nM"}]}]}
